From patent publication US8404898B2, “Integrated process for the preparation of polybenzimidazole precursors” (E I du Pont de Nemours and Company, priority 2008, dated 2013)

Assay: solubility of TAT salt in water
Format: physicochemical
Settings: water at 25° C.
Experimental: The reaction mixture containing the precipitated TAT salt is then cooled to about 5° C. to about 15° C. and stirred, then filtered. The TAT salt is then washed 44. […] Using an agitated filter unit during the wash procedures can allow for a reduction of the wash volumes. Under such circumstances, using small amounts of cold (e.g., about 5° C.) water instead of the aqueous acid would be effective; cold water would be used because of lower solubility of the TAT salt in cold water versus, e.g., room temperature. For example, the solubility of TAT.4HCl in water at 25° C. is about 16 wt %.

solubility in water: about 16 wt %
SMILES: Cc1c(N)c(N)cc(N)c1N [TAT.4HCl, 2,3,5,6-tetraminotoluene]
